In patent US4151279A (priority 1978, dated 1979):

Tests used:
Assay type in all cases: in vivo
Ersiphe polygoni = assay: Powdery Mildew control (sprayed bean seedlings); conditions: 250-ppm solution; bean seedlings (cultivar Bountiful); inoculated one day after spray; about 10 days; relative to untreated check plants
Description: The powdery mildew test was made using bean seedlings (cultivar Bountiful) with well-developed primary leaves. The pathogen was Ersiphe polygoni. The bean seedlings were sprayed with a 250-ppm solution of the test compound in an acetone-water mixture containing a non-ionic emulsifier. The treated plants were inoculated one day after spray application of the test compound with the pathogen. The plants were then maintained in a greenhouse at 60-80% relative humidity and at a temperature of 20°-22° C. The rate of infection on the leaves were checked after about 10 days. The percent disease control provided by a given test compound was based on the disease reduction relative to untreated check plants.

Phytophthora infestans = assay: whole plant or invertebrate; conditions: in Solanum lycopersicum, 168 h, read-out: % Control
Alternaria solani = assay: Tomato Early Blight control (sprayed tomato seedlings); conditions: 288 h, 250-ppm solution, tomato (cultivar Bonny Best) seedlings, inoculated one day later, about 12 days, relative to untreated check plants
Description: Compounds of the invention were tested for the control of the Tomato Early Blight organism, Alternaria solani. Tomato (cultivar Bonny Best) seedlings of 6 to 7 weeks old were used. The tomato plants were sprayed with a 250-ppm solution of the test compound in an acetone-and-water solution containing a small amount of a non-ionic emulsifier. The sprayed plants were inoculated one day later with the organism, dried and maintained at 60-80% relative humidity for about 12 days. Percent disease control was based on the percent disease development on untreated check plants.

Plasmopara viticola = assay: Preventive Grape Downy Mildew control (detached grape leaves); conditions: detached Vitis vinifera cultivar Emperor leaves, seven to nine days after inoculation
Description: Compounds Nos. 1, 4, 13 and 19 were tested for the control of the grape downy mildew organism Plasmopara viticola. Detached leaves, between 70 and 85 mm in diameter, of 7-week-old Vitis vinifera cultivar Emperor grape seedlings were used as hosts. The leaves were sprayed with a solution of the test compound in acetone. The sprayed leaves were dried, inoculated with a spore suspension of the organism, placed in a humid environmental chamber and incubated at 18°-22° C. and about 100% relative humidity. Seven to nine days after inoculation, the amount of disease control was determined. The percent disease control provided by a given test compound was based on the percent disease reduction relative to untreated check plants.

Septoria apii = conditions: celery (Utah) plants 11 weeks old; approximately 14 days; concentration not given; relative to untreated check plants
Botrytis cinerea = Botrytis cinerea control (preventive, harvested grape berries); conditions: 250-ppm solution; grape berries (cultivar Emperor); inoculated approximately one day later; 6-9 days after inoculation; relative to non-treated check
Description: Compounds Nos. 1, 8 and 11 were tested as preventive fungicides against Botrytis cinerea on harvested mature grape berries (cultivar Emperor) by the following procedure: 4 grape bunches (trimmed to approximately 50 berries) were sprayed with a 250-ppm solution of the test compound in a solution of water, acetone and a small amount of a non-ionic emulsifier. The sprayed grapes were inoculated approximately one day later with 2- to 3-week-old spores of Botrytis cinerea grown on potato dextrose agar plants. The rate of disease incidence was determined 6-9 days after inoculation, when disease symptoms are fully evident on non-treated check grapes. Infection is determined by actual count of the number of infected berries. The percent disease control provided by a test compound was calculated from the percentage disease reduction based on the non-treated check plants.

Compound	pest or weed control at 250 µg/mL (Phytophthora infestans)	pest or weed control at 250 µg/mL (Alternaria solani)	further results
CC1(C)OC(=O)CC(C(Cl)(Cl)Cl)N1OC(=O)Nc1ccc(Cl)cc1 (stereo not shown) [Compound 24]	–	–	% Control (Ersiphe polygoni): 75%
CC(C)C1(C)OC(=O)CC(C(Cl)(Cl)Cl)N1OC(=O)Nc1ccc(Cl)cc1 (stereo not shown) [Compound 32]	56%	23%	% Control (Ersiphe polygoni): 100%
CC(C)C1(C)OC(=O)CC(C(Cl)(Cl)Cl)N1OC(=O)Nc1ccc(Cl)c(Cl)c1 (stereo not shown) [Compound 28]	23%	–	–
Cc1ccc(NC(=O)ON2C(C(Cl)(Cl)Cl)CC(=O)OC2(C)C)cc1 (stereo not shown) [Compound 33]	21%	–	% Control (Ersiphe polygoni): 96%
CC1(c2ccccc2)OC(=O)C(Cl)(Cl)C(C(Cl)(Cl)Cl)N1OC(=O)Nc1cccc(Cl)c1 (stereo not shown) [Compound 13]	89%	–	% Control (Plasmopara viticola; 100 ppm): 73%
CC1(c2ccccc2)OC(=O)C(Cl)(Cl)C(C(Cl)(Cl)Cl)N1OC(=O)Nc1ccc(Cl)c(Cl)c1 (stereo not shown) [Compound 9]	89%	–	–
CC1(C)OC(=O)C(Cl)(Cl)C(C(Cl)(Cl)Cl)N1OC(=O)Nc1cccc(Cl)c1 (stereo not shown) [Compound 10]	68%	84%	–
O=C(Nc1cccc(Cl)c1)ON1C(C(Cl)(Cl)Cl)C(Cl)(Cl)C(=O)OC12CCCC2 (stereo not shown) [Compound 12]	68%	33%	–
CC1(C)OC(=O)CC(C(Cl)(Cl)Cl)N1OC(=O)Nc1ccc(Cl)c(Cl)c1 (stereo not shown) [Compound 4]	96%	–	% Control (Plasmopara viticola; 100 ppm): 60%
O=C(Nc1cccc(Cl)c1)ON1C(C(Cl)(Cl)Cl)C(Cl)(Cl)C(=O)OC1(c1ccccc1)c1ccccc1 (stereo not shown) [Compound 15]	–	51%	% Control (Ersiphe polygoni): 11%
CC1(C)OC(=O)CC(C(Cl)(Cl)Cl)N1OC(=O)Nc1ccccc1F (stereo not shown) [Compound 2]	–	21%	% Control (Ersiphe polygoni): 75%
COc1ccc(NC(=O)ON2C(C(Cl)(Cl)Cl)C(Cl)(Cl)C(=O)OC2(C)C)cc1 (stereo not shown) [Compound 18]	95%	–	–
CCC1(C)OC(=O)CC(C(Cl)(Cl)Cl)N1OC(=O)Nc1ccc(Cl)cc1 (stereo not shown) [Compound 31]	27%	39%	% Control (Septoria apii): 64%
CC1(C)OC(=O)CC(C(Cl)(Cl)Cl)N1OC(=O)Nc1ccccc1 (stereo not shown) [Compound 1]	–	21%	% Control (Ersiphe polygoni): 91%; % Control (Botrytis cinerea): 23%; % Control (Plasmopara viticola; 250 ppm): 23%
O=C(Nc1ccc(Cl)cc1)ON1C(C(Cl)(Cl)Cl)C(Cl)(Cl)C(=O)OC12CCCC2 (stereo not shown) [Compound 11]	94%	84%	% Control (Septoria apii): 42%; % Control (Botrytis cinerea): 78%
CC1(C)OC(=O)C(Cl)(Cl)C(C(Cl)(Cl)Cl)N1OC(=O)Nc1ccc(Cl)c(Cl)c1 (stereo not shown) [Compound 7]	21%	18%	–
CC(C)C1(C)OC(=O)C(Cl)(Cl)C(C(Cl)(Cl)Cl)N1OC(=O)Nc1ccccc1 (stereo not shown) [Compound 27]	92%	–	–
O=C1CC(C(Cl)(Cl)Cl)N(OC(=O)Nc2ccc(Cl)c(Cl)c2)C2(CCCCC2)O1 (stereo not shown) [Compound 5]	56%	–	–
CC1(C)OC(=O)C(Cl)(Cl)C(C(Cl)(Cl)Cl)N1OC(=O)Nc1ccc(Cl)cc1 (stereo not shown) [Compound 14]	–	27%	–
CC1(c2ccccc2)OC(=O)C(Cl)(Cl)C(C(Cl)(Cl)Cl)N1OC(=O)Nc1ccccc1 (stereo not shown) [Compound 8, N-(phenylcarbamyloxy)-2-methyl-2-phenyl-4-trichloromethyl-5,5-dichloro-6-oxotetrahydro-1,3-oxazine]	97%	84%	% Control (Septoria apii): 61%; % Control (Botrytis cinerea): 100%
O=C(Nc1ccc(Cl)cc1)ON1C(C(Cl)(Cl)Cl)C(Cl)(Cl)C(=O)OC1(c1ccccc1)c1ccccc1 (stereo not shown) [Compound 16]	–	68%	–
Cc1cccc(C)c1NC(=O)ON1C(C(Cl)(Cl)Cl)C(Cl)(Cl)C(=O)OC1(C)C (stereo not shown) [Compound 21]	88%	–	–
